Earlier results, collected in US20260373079A1, “USE OF LONG-ACTING FLUTICASONE PROPIONATE INJECTABLE SUSPENSIONS FOR TREATING AND PREVENTING INFLAMMATIONS OF THE GASTROINTESTINAL TRACT” (EUPRAXIA PHARMACEUTICALS INC., priority 2022, published 2026).
Each block holds one compound with its values, some of them ahead of it.

Legend:
[1] = for first pass metabolism, relative to fluticasone: in words
[2] = treatment of EoE; subcutaneous; weekly dosing recommended
[3] = EoE patients

first-pass metabolism ([1]; by the liver): ~ 99%
Compound: CCC(=O)O[C@]1(C(=O)SCF)[C@H](C)C[C@H]2[C@@H]3C[C@H](F)C4=CC(=O)C=C[C@]4(C)[C@@]3(F)[C@@H](O)C[C@@]21C [fluticasone]

Compound: Dupixent: a monoclonal antibody that is administered subcutaneously
effective in patients [2]: 60 % of patients | upper respiratory tract infections [3]: 18 % of patients

first pass metabolism, relative to fluticasone [1]: substantially lower
Compound: C[C@H]1C[C@H]2[C@@H]3CCC4=CC(=O)C=C[C@]4(C)[C@@]3(Cl)[C@@H](O)C[C@]2(C)[C@@]1(O)C(=O)CO [beclomethasone]

first pass metabolism, relative to fluticasone [1]: substantially lower
Compound: C[C@]12C=CC(=O)C=C1CC[C@H]1[C@@H]3C[C@@H](O)[C@](O)(C(=O)CO)[C@@]3(C)C[C@H](O)[C@@]12F [triamcinolone]
